Results from patent US20050260181A1, “Compositions and methods for tissue repair” (Immunopath Profile, Inc., priority 2004, published 2005).
Where two headings read alike, the source gives them in different places.

Assays:
[1] = rats orally; cited from earlier work
[2] = system: T47D breast cancer tissue cells; experiment: MTS breast cancer mitochondrial activity assay; assay type: cell-based; conditions: for MTS suppression ratio (mean OD treated / mean OD control), 24 h: culture time 24 h; for MTS suppression ratio (mean OD treated / mean OD control), 24 h / MTS suppression ratio (mean OD treated / mean OD control), 48 h: 1.0 = no effect; for MTS suppression ratio (mean OD treated / mean OD control), 48 h: culture time 48 h
Protocol: In addition to and equal to the effects of high HLB surfactants for comparative testing. These comparative studies were performed and results are reported in the above table. Metabolism was comparatively measured with controls and other extracts as to the reduction of mitochondrial activity, (MTS). This compound is a substrate for the mitochondrial enzymes—and is reduced to a blue formazan product.
In the first experiments—The extracted therapeutic test agents were derived from specified tissue. Water extracts of the crushed tissue, were also prepared. For the later experiments, specific varieties of extracts were prepared and examined: Cells were obtained from American Type Culture Collection (ATCC, Washington, D.C.) and were cultured as recommended by ATCC. Experiments were performed in 96 well microtiter plates. Each well contained 1.0×10^4 cells suspended in a total volume of […]. Test wells contained the designated amount of extract in cell culture medium. Control wells contained the same amount of extract solvent in medium. Plates were incubated in an atmosphere of 5% C02 for 24 or 48 hours with extract or solvent. At this time, […] were added to each well and incubation was continued for an additional 4 hours after which time the optical density (OD) at […] of each well was recorded. In each experiment, each sample was assayed in triplicate and the mean optical density (OD) for the three wells containing the same culture was calculated.
Data are presented as suppression ratios. The suppression ratio defined here as the mean optical density (OD) for the wells containing extract divided by the mean optical density (OD) for the control wells.
The purpose of the work was to determine which therapeutic agent extracts (further separated by chromatography) explored through this methodology for anti-cancer activity. The data presented here represents semi-quantitative anti-cancer screening tests. Extracts with ratios in the range 0.51-0.74 were considered moderately active and therefore appropriate for considered use along with preventive anti-cancer treatment and active anti-cancer treatment. In co-use with anti-cancer treatment and radiation treatment, may lessen the dose and the side effects of these current therapeutic agents. Extracts with metabolism suppression ratios less than or equal to 0.5 represented a suppression of metabolism of at least 50% or greater than that of the controls and were considered definitely active potential anti-cancer agents, as was the case of High HLB Tween 80 with ethylene maturation apoptosis promoting factor with a 76% suppression of mitochondrial metabolism of cancer cells.

[3] = Circulation, blood viscosity and sedimentation rate with intermediate HLB lipid; assay type: in vivo; conditions: HLB 8 to 11
Source text: The amount of surface-active polar lipid to include in the composition can be determined by viscosity measurements. Tissue concentration can be measured by viscosity (as used in blood serum which normally is 1.12 to 1.22 centipoise with upper limit of three). In the case of the intermediate HLB 8 to 11 (as exemplified by PC phosphatidylcholine when so used) circulation is improved 25% however there is no change in viscosity or the red blood cell sedimentation rate at these HLB ranges because of the fact that biophysical functional effects is upon the cell membrane. With its use the red cell membrane becomes more plastic, and is made more pliable thereby enhancing circulation and oxygenation.
Component No. 2 contains self-vesiculating essence of HLB 8 to 11 or 12, ideally 10 to 11, cell membrane forming and repairing liquid crystal phosphatidylcholine (PC), thereby increasing pliability of the red cell, blood vessel and endothelial membrane enhancing circulatory function by 25%. Component No. 2 optionally contains high HLB surfactants with packing parameters that not only enhance biologic function and efficiency of protein enzymes and their substrate but also promotes protein refolding and thereby normalizing biologic function. This helps to normalize the biologic function of disease promoting protein structures of Alzheimer's disease, Parkinson's disease, and Mad Cow disease. […]

[4] = rats and mice; cited from earlier work

**Q.** For `CCCCCCCCCCCCOS(=O)(=O)[O-].[Na+]` [sodium lauryl sulfate], which “LD 50” value [1] is on record?
**A.** 1288 mg per kilogram

**Q.** Which “MTS suppression ratio (mean OD treated / mean OD control), 24 h” value ([2]; T47D cells) does the source give for phosphatidylcholine [PC] here?
**A.** 0.92

**Q.** And the “MTS suppression ratio (mean OD treated / mean OD control), 48 h” value ([2]; T47D cells)?
**A.** 0.98

**Q.** What about the “improvement of circulation / circulatory function” value [3] of the same molecule?
**A.** 25%

**Q.** For polyglycerol polyricinolate [PGPR], which “LD 50” value [4] is on record?
**A.** 7.5 ml per kilogram

**Q.** For “polyoxyethylene Sorbitan Monooleate [Tween 80]”, which “LD 50” value [4] is on record?
**A.** 7.5 ml per kilogram

**Q.** And the “suppression of mitochondrial metabolism of cancer cells” value [2]?
**A.** 76%

**Q.** And the “% normalization of Breast cancer cells” value ([2]; T47D cells)?
**A.** 76%

**Q.** And the “MTS suppression ratio (mean OD treated / mean OD control), 24 h” value ([2]; T47D cells)?
**A.** 0.48

**Q.** And the “MTS suppression ratio (mean OD treated / mean OD control), 48 h” value ([2]; T47D cells)?
**A.** 0.24
